Test results as given in US20140315972A1, “RS)-2-(2-oxo-4-phenylpyrrolidin-1-yl)acetamide compound having modulatory activity with a commensurate effect, pharmaceutical substance (variants) and its application, composition (variants) thereof” (priority 2011, published 2014).
Marks after values point to notes of the source that are not given here.

What was measured:
patients = experiment: Topical solution on periodontal, enamel and dentin condition; format: in vivo, human; conditions: for Efficacy on a 4-point scale (periodontal, enamel and dentin condition): humans, topical
Excerpt: Studies of the effects of Phenotropil on condition of paradontium, enamel and dentin with topic application involved men and women (45-54 years) diagnosed with periodontitis, parodontosis and caries. Enrollment of groups by separate indicators in this age failed. In the vast majority of subjects, the diseases were combined. The gender ratio in groups was: 30.0% men and 70.0% women, the ratio of smokers to non-smokers 60:40, the number of female smokers was higher than male smokers by 35.0%. All patients received every three days the required amount of 0.1%, 0.2% or 0.3% solution of Phenotropil or placebo. The solutions were applied daily as dental trays (for 30 sec.) in the morning and evening at 30 ml per application for 30 days. Food and drinks intake, including water, were not recommended for 2 hours after the procedure. All patients underwent a dental check-up and standard hygienic treatment with removing plaque and dental scale and lavaging the gingival pockets with 1% Phenotropil solution. For each subject, the studied parameters were recorded; the aggregate integral indicator of the general periodontal condition of enamel and dentin was calculated, in the negative scores. The examinations were conducted once a week throughout the period of monotherapy. Simultaneous studies were conducted for evaluation of lipid peroxidation state in samples of saliva, at the baseline examination and after the course of therapy.
The positive effect of treatment with Phenotropil was observed after about 14 days and intensified in the course of therapy. Efficacy after one month of treatment with the drug was the highest and most evident at the initial stages of disease and moderate severity of […]. Effect on periodontitis was apparent, but less pronounced. Treatment of periodontitis probably requires a longer course and administration of Phenotropil tablets according to the usual regime to modulate the general functional state of the body. The ranking evaluation of efficacy (0—no effect, 1—slightly pronounced effect below 30.0% in the group, 2—average degree of efficacy from 30.0 to 50.0%, 3—high efficacy, above 50.0%) was established by an integral indicator of the aggregate of all the parameters tested.

mice = experiment: Hot plate test (pain sensitivity); format: in vivo; conditions: for Latent period (hot plate): mice
Excerpt: The analgesic effect is present at all studied doses and increases with increasing dose.

rats [1] = experiment: Carrageenan-induced paw edema; format: in vivo; conditions: 100 mg/kg intragastrically 60 minutes before carrageenan
Experimental: (§1) To identify and assess the anti-inflammatory action of Phenotropil, a standard technique was used; the carrageenan-induced paw edema in rats (Winter C. et al, 1962). Phenotropil at a dose of 100 mg/kg was administered intragastrically 60 minutes before carrageenan. Control animals received distilled water. Additionally, the topical application by method of formalin induced edema was investigated (subplantar administration of 0.1 ml of 2% formalin solution). Phenotropil for topical use was prepared (1:1) on the standard ointment base carrier at 100 mg/kg of body weight for each animal (150-220 g). The preparation was rubbed in the leg and a gauze patch was applied for 2 hours and 1 hour before the induction of inflammation.

rats [2] = experiment: Acute toxicity, single intragastric administration in immature rats; format: in vivo; conditions: for Dead/total number: rats 30-35 days
Experimental: Tables 2, 2.1 and 2.2 present the results of acute toxicity studies of the Compounds with active substance content in at least white outbred male mice (body weight 18-24 g) and white outbred rats 30-35 days of age, of both sexes with a single dose. Calculation of toxic doses was made using the Wilcoxon and Litchfield method. Observations were made over 24 hours and 14 days after a single dose.
LD50 in rat pups after intragastric administration was not found. Intragastric administration to rat pups of doses of more than 1000 mg/kg is technically impossible due to the small volume of the stomach (Table 2.2).

rats [3] = experiment: Forced swimming with freely rotating wheels by Nomura; format: in vivo; conditions: rat pups
Experimental: The antidepressant effect of Phenotropil was studied in adult rats (185-218 g) and rat pups of 28-35 days of age (85-110 g). The test drugs were injected intraperitoneally in the first case and intragastrically in the second case 40 min before the tests. The methods of behavioral despair during forced swimming (Porsolt et al., 1978) and forced swimming with freely rotating wheels (Nomura et al., 1982) were used.
In the study of depression by Porsolt, no significant differences between the effective doses were found (Table 10), while according to the method of Nomura this difference is statistically significant. At a dose of 100 mg/kg, the efficacy of Phenotropil as compared to the control, was 59.0%. At a dose of 200 mg/kg it was +30.0% in comparison with the control group (Table 10.1). […] The effect of Phenotropil was investigated by the method of Nomura also in mature outbred rats (185-218 g).

rats [4] = experiment: Hemorrhagic stroke (intracerebral post-traumatic hematoma), McGrow scale; format: in vivo
Excerpt: The stroke condition was simulated in male rats (270-320 g) at a local cerebral hemorrhage, as a hemorrhagic stroke (intracerebral post-traumatic hematoma) by the method of A. N. Makarenko et al (1990) and at cerebral ischemia with distal occlusion of the middle cerebral artery (Chen S. T., Hsu C. Y., Hogan E. L., Maricq H., Balentine J. D. A model of focal ischemic stroke in the rat reproducible extensive cortical infarction//Stroke.—1989, V. 17, No 4, p. 738-743) as an ischemic stroke. Phenotropil was injected intraperitoneally at hemorrhagic stroke at 100 mg/kg immediately after surgery, and one hour before and two hours after the surgery (at doses of 100, 200 and 300 mg/kg) at ischemic stroke. Control animals were treated adequately with distilled water.

rats [5] = experiment: Formalin induced edema, topical application; format: in vivo
Experimental: as §1

[6] = rats, hemorrhagic stroke, 100 mg/kg i.p., 1 day after surgery

What does the source list for NC(=O)CN1CC(c2ccccc2)CC1=O (racemic) [Compound 1, (RS)-2-(2-oxo-4-phenylpyrrolidine-1-yl)acetamide]?
smokers who quit smoking at the third week of therapy (patients; 0.1-0.3% solution as dental trays, 30 days): 25.0%; Efficacy on a 4-point scale (periodontal, enamel and dentin condition) (patients; Phenotropil 1%): 2* (average degree of efficacy from 30.0 to 50.0%); Efficacy on a 4-point scale (periodontal, enamel and dentin condition) (patients; Phenotropil 2%): 3* (high efficacy, above 50.0%); Efficacy on a 4-point scale (periodontal, enamel and dentin condition) (patients; Phenotropil 3%): 3* (high efficacy, above 50.0%); reduction of pain sensitivity (mice; 50 mg/kg, 30 minutes): 14.3%; reduction of pain sensitivity (mice; 50 mg/kg, 60 minutes): 8.3%; reduction of pain sensitivity (mice; 50 mg/kg, 120 minutes): 10.8%; reduction of pain sensitivity (mice; 100.0 mg/kg, 30 minutes): 12.4%; reduction of pain sensitivity (mice; 100.0 mg/kg, 60 minutes): 12.5%; reduction of pain sensitivity (mice; 100.0 mg/kg, 120 minutes): 31.5%; reduction of pain sensitivity (mice; 300.0 mg/kg, 30 minutes): 71.4%; reduction of pain sensitivity (mice; 300.0 mg/kg, 60 minutes): 61.5%; Latent period (hot plate) (mice; 50.0 mg/kg i.p., 30 min): 12.0 ± 1.1 min; Latent period (hot plate) (mice; 50.0 mg/kg i.p., 60 min): 11.7 ± 0.7 min; Latent period (hot plate) (mice; 50.0 mg/kg i.p., 120 min): 12.3 ± 0.8 min; Latent period (hot plate) (mice; 100.0 mg/kg i.p., 30 min): 11.8 ± 0.7^ min.; Latent period (hot plate) (mice; 100.0 mg/kg i.p., 60 min): 13.5 ± 1.4 min; Latent period (hot plate) (mice; 100.0 mg/kg i.p., 120 min): 14.6 ± 1.4 min; Latent period (hot plate) (mice; 300.0 mg/kg i.p., 30 min): 18.0 ± 1.0 min; Latent period (hot plate) (mice; 300.0 mg/kg i.p., 60 min): 18.2 ± 0.8 min; Latent period (hot plate) (mice; 300.0 mg/kg i.p., 120 min): 22.2 ± 1.0 min; shortening of inflammation vs control (rats [1]): 52.3%; Dead/total number (rats [2]; single intragastric 800 mg/kg): 0/10; Dead/total number (rats [2]; single intragastric 1000 mg/kg): 0/10; % of dead rat pups (rats [2]; single intragastric 800 mg/kg): 0%; % of dead rat pups (rats [2]; single intragastric 1000 mg/kg): 0%; Number of revolutions (rats [3]; 100 mg/kg): 175.4 ± 22.98; Number of revolutions (rats [3]; 200 mg/kg): 143.4 ± 33.14; prevention of lethal outcomes, % of cases (rats [4]; hemorrhagic and ischemic stroke in rats, follow up 14 days): 100%; % of animals with circling movements (rats [4]; [6]): 0* %; % of animals with lethargy, slowness of movement (rats [4]; [6]): 30%; % of animals with paralysis of 1-4 limbs (rats [4]; [6]): 0* %; % of animals with paresis of 1-4 limbs (rats [4]; [6]): 20* %; % of animals with weakness of limbs (rats [4]; [6]): 30* %; Mortality (rats [4]; [6]): 0* %; shortening of inflammation vs control (rats [5]; topical 100 mg/kg before formalin): 64.5%; Effect on formalin edema vs control (100) (rats [5]; topical 100 mg/kg, 2 hours before formalin): −79.9%
